The record followed here is PubChem BioAssay (NCI).

SMILES strings stand for the structures.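 In this assay, cells in 96-well plates receive the compound at five concentrations for 48 hours. Endpoints are linearly interpolated between the surrounding concentrations. TGI: concentration producing complete growth inhibition.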

Experiment in all cases: NCI tumour cell line growth inhibition, 48 h
Experiment [1] has as its system A549 NSCLC.
Experiment [2] deals with KM12 colon.
Experiment [3] has as its system NCI-H226 lung.
Experiment [4] concerns OVCAR-8 ovarian.
The subject of experiment [5] is RXF 393 renal.
Experiment [6] concerns SR leukemia.
Experiment [7] deals with SW-620 colon.
For experiment [8], the system named is UO-31 renal.
The test system of experiment [9] is CCRF-CEM leukemia.
Experiment [10] relates to NCI-H522 lung.
Experiment [11] has as its system OVCAR-4 ovarian.
In experiment [12] the test system is SF-268 CNS.
Experiment [13] has as its system SF-295 CNS.
Experiment [14] has as its system SN12C renal.

`c1ccc(N=C2C(=Nc3ccccc3)N(C3CCCCC3)C(=NC3CCCCC3)N2c2ccccc2)cc1`: the TGI in experiment [1], in experiment [2], in experiment [3], in experiment [4], in [5] and in experiment [6] was > 100 µM throughout. Also, the TGI in experiment [7] and in [8] was > 100 µM throughout.
With `Nc1ncnc2c1ccn2CC=C(CO)CO`, the TGI in experiment [1], in experiment [9], in experiment [2], in experiment [3], in experiment [10] and in [11] was > 100 µM throughout. Also, the TGI in experiment [4], in experiment [5], in experiment [12], in [13], in [14] and in experiment [7] was > 100 µM in each case. Further, in [8], the TGI was > 100 µM.
As for `COc1ccc2[nH]c3c(C)c4ccnc(NCCCN(C)CCCN)c4c(C)c3c2c1`, the TGI in [9] is > 32.1 µM; in experiment [2] it was 0.809 µM; in experiment [3], 0.223 µM; in [10], 0.137 µM; in [11] it was 0.442 µM; in experiment [4], 0.376 µM. Besides, the TGI was 0.66 µM in experiment [13], 0.257 µM in experiment [14], > 100 µM in experiment [6] and 3.23 µM in experiment [8].
As to `CC1(C)CC(=O)C(CC2C(=O)c3ccccc3C2=O)C(=O)C1C(=O)C(=O)Nc1cccc2ccc(O)cc12` (stereo unspecified), the TGI in experiment [1], in [9], in [2], in experiment [3], in [10] and in experiment [11] was > 100 µM in each case. Moreover, the TGI in experiment [4], in [12], in experiment [13], in experiment [14], in [7] and in experiment [8] was > 100 µM each time.
Take `Nc1nc(NNc2ccccc2F)cc(=O)[nH]1`: the TGI in experiment [1], in experiment [9], in experiment [2], in experiment [3], in [11] and in experiment [4] was > 100 µM in each case. For the same molecule, the TGI in experiment [13], in experiment [14], in experiment [6], in experiment [7] and in experiment [8] was > 100 µM throughout.
With `CC1=C(S(=O)c2ccc(C)cc2)CCC2(CCCCO2)O1` (stereo unspecified), the TGI in experiment [2], in [3], in [10], in [11], in experiment [4] and in experiment [5] was > 100 µM throughout. The TGI in experiment [12], in experiment [13], in [14], in experiment [7] and in experiment [8] was > 100 µM in each case.
On to `N#Cc1nc(-c2ccccc2O)oc1N`, for which the TGI in experiment [1], in experiment [9], in [2], in [4], in [5] and in experiment [12] was > 100 µM in each case. Besides, the TGI in [14] and in [7] was > 100 µM throughout.
As to `Cc1ccc(S(=O)(=O)C(C#N)c2nc3ccccc3nc2N2CCOCC2)cc1` (stereo unspecified), the TGI in experiment [1] was > 100 µM; in experiment [9], 62.2 µM; in experiment [2], 38.2 µM; in experiment [3], > 100 µM; in experiment [10] it was 37.3 µM; in [11], 37.4 µM. Also, the TGI was 71.1 µM in experiment [12]; 96.4 µM in [14]; > 100 µM in experiment [6]; > 100 µM in experiment [7]; > 100 µM in experiment [8].
In the case of `CCOC(=O)C1=COC(C)(C)CC1=O`, the TGI in experiment [1], in experiment [2], in experiment [10], in [11], in experiment [4] and in experiment [5] was > 100 µM in each case. In addition, the TGI in [12], in experiment [13], in experiment [14], in [7] and in [8] was > 100 µM in each case.
In the case of `C=CC(Br)(CBr)CCC(Br)C(C)(C)Br` (stereo unspecified), the TGI in experiment [1] amounted to 29.8 µM; in experiment [2], 22.3 µM; in [3] it was 32.8 µM; in experiment [10] it was 30.1 µM; in [11], 32.3 µM; in experiment [4], 30.1 µM. Moreover, the TGI in experiment [5] was 28.8 µM; in experiment [12], 32.3 µM; in experiment [13] it was 16 µM; in [14], 29.7 µM; in experiment [6], 21.5 µM; in experiment [7], 26.6 µM. In addition, the TGI in [8] came out at 28.8 µM.
`Cc1no[n+]([O-])c1/C=N/NS(=O)(=O)c1ccccc1`: the TGI in experiment [1], in experiment [2], in experiment [10], in experiment [11], in experiment [4] and in experiment [5] was > 100 µM in each case. The TGI in experiment [12], in experiment [14], in experiment [6], in experiment [7] and in experiment [8] was > 100 µM each time.
As for `Cc1ccc(S(=O)(=O)N/N=C2/C3C(CC2(C)C)C2(C)CCCC3(C)C2O)cc1` (stereo unspecified), the TGI in experiment [1] turned out to be 63.7 µM; in [9], 59.4 µM; in experiment [2], 35.1 µM; in experiment [3], 35.3 µM; in experiment [10], 44.5 µM; in [11], 43.3 µM. Also, the TGI in [4] was > 100 µM; in experiment [12], > 100 µM; in [13] it was 29.6 µM; in [14], 36.5 µM; in experiment [6], > 100 µM; in [8] it was > 100 µM.
